Experiments:
human ROCK1 = biological target: T1, human ROCK1 (Homo sapiens, UniProt Q13464); assay: Measurement of Rho kinase inhibitory activity (ELISA of MBS phosphorylation); assay type: biochemical; conditions: human ROCK1, MBS substrate, 100 μM ATP, 30° C. for 10 minutes
T1 construct: His tag (N); host or cells: insect cells (Sf9)
In short: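 N-terminal His-tagged human ROCK1 (1-727, Sf9-expressed) phosphorylated plate-immobilized MBS in 20 mM HEPES pH 7.5, 100 μM ATP, 30° C for 10 minutes. Phospho-MBS detected by antibody ELISA (A490); IC50 is concentration giving 50% inhibition.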

[1] = system: rabbit normal intraocular pressure; assay: Intraocular pressure reducing action; assay type: in vivo, Japanese white rabbit; conditions: Oryctolagus cuniculus, topical, read-out: intraocular pressure reducing degree; for inhibition in vivo at 3000 µM: 3 mM aqueous solution, 50 μl to the left eye, max IOP reduction (2, 4, 6 hours) / value immediately before administration
In short: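 Japanese white rabbits (~2 kg) under topical anaesthesia received 50 μl of a 3 mM aqueous test solution in the left eye, right eye untreated. IOP read by tonometer before and at 2, 4, 6 h; maximal left–right difference divided by pre-dose IOP ×100 gives % reduction.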

TNF-α production = assay: Inhibitory effect on TNF-α production in mice (LPS); assay type: in vivo, BALB/c mice; conditions: Mus musculus, 1.5 h; oral administration of 30 mg/kg, LPS 5 μg i.p. 60 minutes later, plasma after 90 minutes; read-out: TNF-α production suppressing action
Protocol: BALB/c mice (Japan CRJ, famale) were used as experimental animals. Each test compound was dissolved in distilled water at a concentration suitable for the examination. The weight of each mouse was measured, a test compound solution was orally administered in a volume corresponding to 10 ml/kg, and only distilled water was administered to the control group. Each group consisted of five to seven animals. LPS was dissolved in physiological saline, and intraperitoneally administered to each mouse in an amount of 5 μg. The test compound was administered first, and LPS (lipopolysaccharide, Sigma) was administered 60 minutes later. After 90 minutes, blood was collected from the abdominal large vein in the presence of heparin, and plasma was obtained by centrifugation. TNF-α content in the plasma was measured by using the ELISA method.

T1 sequence (Q13464 1-727): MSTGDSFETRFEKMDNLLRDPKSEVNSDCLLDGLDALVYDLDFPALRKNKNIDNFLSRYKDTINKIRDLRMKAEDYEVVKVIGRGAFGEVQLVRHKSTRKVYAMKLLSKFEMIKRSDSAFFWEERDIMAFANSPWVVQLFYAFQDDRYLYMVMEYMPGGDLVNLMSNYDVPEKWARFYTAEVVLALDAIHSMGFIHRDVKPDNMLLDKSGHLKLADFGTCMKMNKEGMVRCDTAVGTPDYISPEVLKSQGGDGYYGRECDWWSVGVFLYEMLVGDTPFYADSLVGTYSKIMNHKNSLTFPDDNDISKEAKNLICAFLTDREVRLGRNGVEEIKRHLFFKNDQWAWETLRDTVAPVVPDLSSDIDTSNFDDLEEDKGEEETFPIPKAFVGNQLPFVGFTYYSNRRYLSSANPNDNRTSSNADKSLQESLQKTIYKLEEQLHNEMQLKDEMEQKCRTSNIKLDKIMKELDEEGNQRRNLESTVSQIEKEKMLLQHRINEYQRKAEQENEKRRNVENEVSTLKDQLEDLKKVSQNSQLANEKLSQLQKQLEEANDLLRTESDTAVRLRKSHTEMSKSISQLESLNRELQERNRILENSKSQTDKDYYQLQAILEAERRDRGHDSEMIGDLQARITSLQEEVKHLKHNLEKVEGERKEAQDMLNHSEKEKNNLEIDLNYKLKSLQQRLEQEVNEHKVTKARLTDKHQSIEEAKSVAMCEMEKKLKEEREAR

Row | SMILES | IC50 (human ROCK1) [nM] | inhibition in vivo at 3000 µM [1] [%] | inhibition in vivo at 30 mg/kg (TNF-α production) [%] | inhibition in vivo at 1000 µM ([1]; test compound of 1 mM, same test as Test Example 3) [%]
1 | C#Cc1cncc2cccc(S(=O)(=O)N3CC[C@H](N)C3)c12 [Example 10-1, (S)-3-Amino-1-(4-ethynyl-5-isoquinolinesulfonyl)pyrrolidine] | < 1000 | ≥ 20 | ≥ 50 | 
2 | O=S(=O)(c1cccc2cncc(Br)c12)N1CC[C@H](NC2CCOCC2)C1 [Example 1-30] | 1000 to 3000 | ≥ 20 | ≥ 30 | 
3 | N[C@H]1CCN(S(=O)(=O)c2cccc3cncc(C4CC4)c23)C1 [Example 11-1, (S)-3-Amino-1-(4-cyclopropyl-5-isoquinolinesulfonyl)pyrrolidine] | < 1000 | 5 to 10 | ≥ 30 | 
4 | Cc1ccc(CN[C@H]2CCN(S(=O)(=O)c3cccc4cncc(Br)c34)C2)cc1 [Example 1-12] | < 1000 |  | ≥ 30 | 
5 | COCC(=O)N[C@H]1CCN(S(=O)(=O)c2cccc3cncc(Br)c23)C1 [Example 71, (S)-3-(2-Methoxyacetyl)amino-1-(4-bromo-5-isoquinolinesulfonyl)pyrrolidine] |  | ≥ 20 | ≥ 30 | 
6 | Cc1ccc(CN[C@H]2CCN(S(=O)(=O)c3cccc4cncc(C)c34)C2)cc1 [Example 8-12] | < 1000 | ≥ 20 | ≥ 50 | 

More lines, main results first:

Row | IC50 (human ROCK1) [nM] | SMILES | inhibition in vivo at 3000 µM [1] [%] | inhibition in vivo at 30 mg/kg (TNF-α production) [%] | inhibition in vivo at 1000 µM ([1]; test compound of 1 mM, same test as Test Example 3) [%]
7 | < 1000 | O=S(=O)(c1cccc2cncc(Br)c12)N1CC[C@H](NCc2ccco2)C1 [Example 4-1, (S)-3-(2-Furylmethyl)amino-1-(4-bromo-5-isoquinolinesulfonyl)pyrrolidine] | ≥ 20 | ≥ 30 | 
8 | < 1000 | CN[C@H]1CCN(S(=O)(=O)c2cccc3cncc(Br)c23)C1 [Example 1-3, (S)-1-(4-Bromo-5-isoquinolinesulfonyl)-3-(methylamino)pyrrolidine] | ≥ 20 | ≥ 50 | ≥ 20
9 | < 1000 | CN[C@H]1CCN(S(=O)(=O)c2cccc3c(O)ncc(Br)c23)C1 [Example 35-1, (S)-1-(1-Hydroxy-4-bromo-5-isoquinolinesulfonyl)-3-(methylamino)pyrrolidine] | 5 to 10 | ≥ 50 | 
10 | 1000 to 3000 | COCC(=O)N[C@H]1CCN(S(=O)(=O)c2cccc3cncc(Cl)c23)C1 [Example 56-1, (S)-3-(2-Methoxyacetyl)amino-1-(4-chloro-5-isoquinolinesulfonyl)pyrrolidine] | ≥ 20 | ≥ 30 | 

— patent US7964613B2 (Asahi Kasei Pharma Corporation, priority 2007, dated 2011)
